According to patent publication US7175850B2, “Formulation for topical non-invasive application in vivo” (Idea AG, priority 1998, dated 2007):

What was measured:
[1] = Biodistribution after epicutaneous application (blood, skin); assay type: in vivo, mice
Method: Drug in the Carrier (Transfersome) Suspensions. The formulations used in the biodistribution studies were labelled with the tritiurated corticosteroids purchased from Amersham or ICN. Preparation of the formulations for the use in animals was done by dissolving all lipoids in methanol/chloroform (1/1 v/v) in the appropriate amounts and preparing a dry mixed lipid film under vacuum (≦10 Pa;≧12 h). The use of potentially harmful organic solvents or drying was entirely avoided in the manufacturing of human medications.
In vivo Experiments mainly involved 8–12 weeks old NMRI mice which were kept under standard laboratory conditions (3–5 per suspending cage; standard chew and water ad libitum; 12 h light/dark regime). Stressful or painful manipulations were always carried out under general injection anesthesia.
Biodistribution. The hair at the chosen skin site was trimmed with a pair of scissors to the length of ≦2 mm one day before experimentation. The precise application site on the upper back was marked and the appropriate amount (0.5 μL to 25 μL) and drug formulation was applied with a micro-pipette on the skin. After uniform distribution with the side of the same pipette tip, the application was left to dry.
Blood samples (20 μL) were taken from the tail end with a glass capillary. After 8 hours the animals were killed by heart puncture and the treated skin area was undermined and carefully excised. The outermost layers of the stratum corneum were collected by five tape-strippings. Subsequently, the residual skin tissue and other organ samples were prepared, destained and used for radioactivity counting. For the experiments with porcine skin, […] of full thickness organ was excised and fixed on a wet tissue. Several test areas of 1 cm^2 were then marked and treated further as in vivo.

[2] = Ratio of corticosteroid concentration in blood and inner skin, calculated for humans
Method: The area dose will normally be between 0.1 μg cm^−2 and 1 μg cm^−2, for the high and low potency drugs, respectively.

| Ratio of corticosteroid concentration in the blood and in the 'inner skin' (mouse) ([1]; dose 0.5 μg/cm^−2, measured) | Ratio of corticosteroid concentration in the blood and in the 'inner skin' (mouse) ([1]; dose 4.9 μg/cm^−2, measured) | Ratio of corticosteroid concentration in the blood and in the 'inner skin' (mouse) ([1]; dose 49.5 μg/cm^−2, measured) | Ratio of corticosteroid concentration in the blood and in the 'inner skin' (mouse) ([1]; dose 1.3 μg/cm^−2, measured) | Ratio of corticosteroid concentration in the blood and in the 'inner skin' (mouse) ([1]; dose 13.2 μg/cm^−2, measured) | Ratio of corticosteroid concentration in the blood and in the 'inner skin' (mouse) ([1]; dose 20.6 μg/cm^−2, measured) | Ratio of corticosteroid concentration in the blood and in the 'inner skin' (human) ([2]; dose 1.3 μg/cm^−2) | Ratio of corticosteroid concentration in the blood and in the 'inner skin' (human) ([2]; dose 13.2 μg/cm^−2) | Ratio of corticosteroid concentration in the blood and in the 'inner skin' (human) ([2]; dose 20.6 μg/cm^−2) | Compound |
| --- | --- | --- | --- | --- | --- | --- | --- | --- | --- |
| 0 | 0.012 | 0.015 |  |  |  |  |  |  | C[C@]12CCC(=O)C=C1CC[C@@H]1[C@@H]2[C@@H](O)C[C@@]2(C)[C@H]1CC[C@]2(O)C(=O)CO [Hydrocortisone, hydrocortisone] |
| 0 | 0.1 | 0.25 |  |  |  |  |  |  | C[C@@H]1C[C@H]2[C@@H]3CCC4=CC(=O)C=C[C@]4(C)[C@@]3(F)[C@@H](O)C[C@]2(C)[C@@]1(O)C(=O)CO [Dexamethasone, dexamethasone] |
|  |  |  | 0.02 | 0.04 | 0.03 | 0.00007 | 0.00011 | 0.0001 | CC1(C)O[C@@H]2C[C@H]3[C@@H]4CCC5=CC(=O)C=C[C@]5(C)[C@@]4(F)[C@@H](O)C[C@]3(C)[C@]2(C(=O)CO)O1 [Triamcinolone-acetonide, triamcinolone-acetonide] |
